Measurements taken from patent publication EP1322622B1, “NEW N, N'-DISUBSTITUTED BENZIMIDAZOLONE DERIVATIVES WITH AFFINITY AT THE SEROTONIN AND DOPAMINE RECEPTORS” (Sprout Pharmaceuticals, Inc., priority 2000, dated 2002).
Read-outs that look alike come from different tables or passages of the source.

Legend:
D4 human receptors = biological target: T1, D4 human receptors (Homo sapiens, UniProt P21917); assay: D4 Radioligand Receptor Binding Assay ([3H] YM-09151-2, CHO cell membranes); settings: compound at 10^-7 M, singlicate; [3H] YM-09151-2 0.15-0.25 nM; read-out: D4 receptor binding assay % inhib. (10^-7 M)
T1 construct: expressed in transfected cells; host or cells: CHO cells
T1 sequence (P21917 1-419): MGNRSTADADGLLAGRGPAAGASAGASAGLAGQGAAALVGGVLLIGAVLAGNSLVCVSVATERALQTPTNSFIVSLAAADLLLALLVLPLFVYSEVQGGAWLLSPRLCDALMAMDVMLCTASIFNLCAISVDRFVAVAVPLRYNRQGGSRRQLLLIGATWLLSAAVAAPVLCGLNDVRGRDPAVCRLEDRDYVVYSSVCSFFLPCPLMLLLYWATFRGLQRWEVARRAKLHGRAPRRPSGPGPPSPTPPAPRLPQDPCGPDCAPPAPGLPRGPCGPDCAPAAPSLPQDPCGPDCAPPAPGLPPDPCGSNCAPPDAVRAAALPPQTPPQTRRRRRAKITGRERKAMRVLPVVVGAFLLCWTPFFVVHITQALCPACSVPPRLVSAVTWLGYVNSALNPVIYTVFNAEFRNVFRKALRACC
Description: Membranes from CHO cells, expressing D4 human receptors were suspended in incubation buffer.
Binding assays were performed in MultiProbe 204 pipetting system (Packard), according to a predetermined mapping, consistent with the software Screen. The compounds were tested in singlicate at one concentration (10^-7 M) in a total volume of 1000 µl (980 µl of diluted membranes, 10 µl DMSO or unlabelled ligand and 10 µl of [^3H] YM-09151-2 (0.15-0.25 nM). After incubation for 120 min at 27 °C, the reaction was stopped by rapid filtration through Tomtec cell Harvester (48 wells) using Filtermat B (presoaked in 0.1% PEI) filters. Filters were washed with ice-cold 50 mM Tris-HCl (pH 7.4) buffer (9 x 700 µl), dryed, covered with MeltiLex B/HS (Wallac) scintillator sheets and heated in oven at 80-90 °C for about 10 min, transferred into plastic sample bags (Wallac), sealed and put into 1024 Beta Plate scintillation counter (Wallac). Non specific binding was determined in the presence of clozapine dissolved in DMSO to a final concentration of 10^-5 M.
(§1) The specific radioligand binding to the receptor was defined by the difference between total binding and non specific binding, determined in the presence of an excess of unlabelled ligand. Results were expressed as percentage of control specific binding obtained in the presence of the compounds.

5-HT1A human receptors = biological target: T2, 5-HT1A human receptors (Homo sapiens, UniProt P08908); assay: 5-HT1A Radioligand Receptor Binding Assay ([3H]-8-OH-DPAT, CHO cell membranes); settings: for inhibition at 0.1 µM: compound at 10^-7 M, singlicate, [3H]-8-OH-DPAT 0.6-0.7 nM, read-out: 5-HT1A receptor binding assay % inhib. (10^-7 M)
T2 construct: expressed in transfected cells; host or cells: CHO cells
T2 sequence (P08908 1-422): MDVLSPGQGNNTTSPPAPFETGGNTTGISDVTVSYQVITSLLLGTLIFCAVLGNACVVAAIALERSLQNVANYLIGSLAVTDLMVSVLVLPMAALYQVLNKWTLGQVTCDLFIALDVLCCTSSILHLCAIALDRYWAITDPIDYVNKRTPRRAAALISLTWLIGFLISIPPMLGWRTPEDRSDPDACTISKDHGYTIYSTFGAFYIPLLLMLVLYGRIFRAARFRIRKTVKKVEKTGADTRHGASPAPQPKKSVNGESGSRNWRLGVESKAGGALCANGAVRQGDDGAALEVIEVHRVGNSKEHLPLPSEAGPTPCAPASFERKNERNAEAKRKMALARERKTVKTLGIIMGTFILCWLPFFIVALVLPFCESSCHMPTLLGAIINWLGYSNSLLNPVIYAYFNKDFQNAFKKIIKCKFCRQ
Description: Membranes from CHO cells, expressing 5-HT1A human receptors were suspended in incubation buffer.
The compounds were tested in singlicate at one concentration (10^-7 M) in a total volume of 1000 µl. 980 µl of diluted membranes, 10 µl DMSO or unlabelled ligand and 10 µl of [^3H]-8-OH-DPAT (0.6-0.7 nM) were incubated for 60 min at 27 °C. The reaction was stopped by rapid filtration through Tomtec cell Harvester (48 wells) using Filtermat B (presoaked in 0.1% PEI) filters. […] Non specific binding was determined in the presence of 5-HT (10^-5 M).
as §1
The affinity values (IC50) for the compounds were obtained by a non linear least squares regression analysis on the basis of a one binding site model.

CHO/5-HT1A cells = biological target: T3, CHO/5-HT1A cells (Homo sapiens, UniProt P08908); assay: 5-HT1A Functional assay (cAMP); format: cell-based; settings: 10 µM compound, % inhibition of the cAMP accumulation induced by 10 µM FSK; for inhibition at 10 µM: read-out: 5-HT1A cAMP % inhib.
T3 construct: expressed in transfected cells; host or cells: CHO/5-HT1A cells
T3 sequence (P08908 1-422): T2 sequence (P08908 1-422)
Description: CHO/5-HT1A cells were random seeded at a density of about 200,000/well in 24 well plates the day prior to the experiment. On the day of the experiment, cells were pretreated for 15 min at 37 °C with 500 µM isobuthylmethylxantine (IBMX) dissolved in culture medium without serum. Wells were then divided in different groups in duplicate as follows: control, 10 µM FSK, 10 µM FSK + 1 µM 5-HT as positive standard and 10 µM FSK + 10 µM of the different compound under evaluation. Sample solutions were added and incubated for additional 15 min at 37 °C. After incubation, medium was aspirated and the reaction stopped by adding 200 µl of lysis buffer. Plates were shaken for 5 min, then the lysate was removed and samples were stored at 4 °C until the day of the assay. For the cAMP evaluation, samples were properly diluted and the cAMP content was measured by an enzymeimmunoassay system.

[1] = [3H]-8-OH-DPAT displacement, CHO membranes, read-out: 5-HT1A receptor binding IC50

Row | Compound | inhibition at 0.1 µM (D4 human receptors) | IC50 (5-HT1A human receptors; [1]) | inhibition at 0.1 µM (5-HT1A human receptors) | inhibition at 10 µM (CHO/5-HT1A cells) | IC50 (5-HT1A human receptors) | 5-HT1A cAMP % inhib. (CHO/5-HT1A cells)
1 | COCCn1c(=O)n(CCCCN2CCN(c3cccc(Cl)c3)CC2)c2ccccc21 [compound 5] | 54% | 13 nM | 92% | 63% |  | 
2 | Cc1cccc(N2CCN(CCCCn3c(=O)n(CCN4CCCCC4)c4ccccc43)CC2)c1C [compound 37] | 54% | 16 nM | 90% | 44% |  | 
3 | O=c1n(CCO)c2ccccc2n1CCCCN1CCN(c2cccc(Cl)c2)CC1 [compound 60] | 82% | 6.2 nM | 93% | 65% |  | 
4 | O=c1n(CCO)c2ccccc2n1CCCCN1CCN(c2cccc(C(F)(F)F)c2)CC1 [compound 64] | 43% |  | 92% | 52% | 12 nM | 
5 | Cc1cccc(N2CCN(CCn3c(=O)n(CCN4CCCCC4)c4ccccc43)CC2)c1C [compound 158] | 72% | 13 nM | 95% | 48% |  | 
6 | COCCn1c(=O)n(CCN2CCN(c3cccc(Cl)c3)CC2)c2ccccc21 [compound 164] | 41% | 4.2 nM | 96% | 73% |  | 
7 | O=c1n(CCO)c2ccccc2n1CCN1CCN(c2cccc(C(F)(F)F)c2)CC1 [compound 187] | 36% | 8.2 nM | 94% | 44% |  | 
8 | CCNC(=O)OCCn1c(=O)n(CCN2CCN(c3cccc(Cl)c3)CC2)c2ccccc21 [compound 202] |  | 1.7 nM |  | 72% |  | 
9 | CCNC(=O)OCCn1c(=O)n(CCN2CCN(c3cccc(C)c3)CC2)c2ccccc21 [compound 217] |  | 5.2 nM |  | 68% |  | 
10 | CCNC(=O)OCCn1c(=O)n(CCN2CCN(c3ccccc3Cl)CC2)c2ccccc21 [compound 219] | 37% | 15 nM | 89% | 61% |  | 
11 | O=c1n(C/C=C\CN2CCN(c3ccccc3)CC2)c2ccccc2n1CCN1CCCCC1 [compound 310] | 49% |  | 85% | 63% |  | 
12 | O=c1n(C/C=C\CN2CCN(c3cccc(C(F)(F)F)c3)CC2)c2ccccc2n1CCN1CCCCC1 [compound 318] | 36% |  | 92% | 61% |  | 
13 | O=c1n(C/C=C/CN2CCN(c3ccccn3)CC2)c2ccccc2n1CCN1CCCCC1 [compound 330] | 84% |  | 97% | 62% |  | 
14 | O=c1n(C/C=C/CN2CCc3c([nH]c4ccccc34)C2)c2ccccc2n1CCN1CCCCC1 [compound 333] | 80% |  | 99% | 67% |  | 
15 | O=c1n(C/C=C/CN2CCN(c3cccc(C(F)(F)F)c3)CC2)c2ccccc2n1CCN1CCCCC1 [compound 335] | 55% | 3.5 nM | 95% | 69% |  | 
16 | O=c1n(C/C=C/CN2CCN(c3ccccn3)CC2)c2ccccc2n1CCN1CCOCC1 [compound 347] |  |  |  | 65% |  | 
17 | O=c1n(C/C=C/CN2CCN(c3cccc(C(F)(F)F)c3)CC2)c2ccccc2n1CCN1CCOCC1 [compound 352] |  |  |  | 79% |  | 
18 | O=c1n(C/C=C\CN2CCN(c3cccc(Cl)c3)CC2)c2ccccc2n1CCO [compound 365] |  |  | 89% | 82% |  | 

Row | Compound | inhibition at 0.1 µM (D4 human receptors) | IC50 (5-HT1A human receptors; [1]) | inhibition at 0.1 µM (5-HT1A human receptors) | inhibition at 10 µM (CHO/5-HT1A cells) | IC50 (5-HT1A human receptors) | 5-HT1A cAMP % inhib. (CHO/5-HT1A cells)
19 | O=c1n(C/C=C\CN2CCN(c3cccc(C(F)(F)F)c3)CC2)c2ccccc2n1CCO [compound 369] | 59% |  | 96% | 84% |  | 
20 | O=c1n(C/C=C\CN2CC=C(c3ccccc3)CC2)c2ccccc2n1CCO [compound 370] | 60% |  | 93% | 52% |  | 
21 | O=c1n(C/C=C/CN2CCN(c3ccccn3)CC2)c2ccccc2n1CCO [compound 381] |  |  |  | 79% |  | 
22 | CCNC(=O)OCCn1c(=O)n(CC=CCN2CCN(c3cccc(C(F)(F)F)c3)CC2)c2ccccc21 [compound 403] |  |  |  | 84% |  | 
23 | CCNC(=O)OCCn1c(=O)n(CC=CCN2CC=C(c3ccccc3)CC2)c2ccccc21 [compound 404] | 34% |  | 95% | 60% |  | 
24 | CCNC(=O)OCCn1c(=O)n(C/C=C/CN2CCN(c3ccccn3)CC2)c2ccccc21 [compound 415] |  |  |  | 82% |  | 
25 | CCNC(=O)OCCn1c(=O)n(CC=CCN2CCN(c3cccc(C(F)(F)F)c3)CC2)c2ccccc21 [compound 420] |  |  |  |  |  | 87%
26 | CCNC(=O)OCCn1c(=O)n(CC=CCN2CC=C(c3ccccc3)CC2)c2ccccc21 [compound 421] |  |  |  |  |  | 56%
27 | CC(=O)NCCn1c(=O)n(C/C=C\CN2CCN(c3cccc(C(F)(F)F)c3)CC2)c2ccccc21 [compound 459] |  |  |  | 86% |  | 
28 | CC(=O)NCCn1c(=O)n(C/C=C\CN2CCN(c3cccc(C)c3C)CC2)c2ccccc21 [compound 468] |  | 3.1 nM |  | 66% |  | 
29 | CC(=O)NCCn1c(=O)n(C/C=C\CN2CCN(c3ccccc3Cl)CC2)c2ccccc21 [compound 472] |  |  |  | 67% |  | 
30 | CS(=O)(=O)NCCn1c(=O)n(CC=CCN2CCN(c3cccc(Cl)c3)CC2)c2ccccc21 [compound 499] |  |  |  | 74% |  | 
31 | CS(=O)(=O)NCCn1c(=O)n(C/C=C\CN2CCN(c3cccc(C(F)(F)F)c3)CC2)c2ccccc21 [compound 503] |  |  |  | 87% |  | 
32 | Cc1cccc(N2CCN(C/C=C\Cn3c(=O)n(CCNS(C)(=O)=O)c4ccccc43)CC2)c1C [compound 512] |  |  |  | 68% |  | 
33 | Cc1cccc(N2CCN(CC=CCn3c(=O)n(CCNS(C)(=O)=O)c4ccccc43)CC2)c1 [compound 514] |  |  |  | 67% |  | 
34 | CS(=O)(=O)NCCn1c(=O)n(C/C=C/CN2CCN(c3ccccn3)CC2)c2ccccc21 [compound 520] |  |  |  | 70% |  | 
35 | CS(=O)(=O)NCCn1c(=O)n(CC=CCN2CCN(c3cccc(Cl)c3)CC2)c2ccccc21 [compound 521] |  |  |  |  |  | 67%
36 | Cc1cccc(N2CCN(C/C=C/Cn3c(=O)n(CCNS(C)(=O)=O)c4ccccc43)CC2)c1 [compound 536] |  | 9.5 nM |  | 55% |  | 
